# Measured values from patent US10695325B2, “Compounds and methods for treating an epileptic disorder” (priority 2013, dated 2020).
# Structures can show the parent of a compound that is named as a salt. Where two headings read alike, the source gives them in different places.
# Assays:
# 6 Hz (32 mA) model = assay: 6 Hz (32 mA) model; assay type: in vivo, mice; settings: identification screen IP
# Procedure: ASP469016 was tested in our initial T31 (MES/scMET/Tox) screen at 30, 100, and 300 mg/kg. The data for each condition is presented as N/F, where N equals the number of animals protected and F equals the number of animals tested. For tests of toxicity (TOX), N equals the number of animals displaying toxic effects and F equals the number of animals tested. Codes in the C column refer to comments from the technicians performing the experiment and are defined in the comments section if necessary. Any deaths are noted. As shown in the 6 Hz (32 mA) model only 1/4 animals were protected at 100 mg/kg at 30 min. In the MES-induced seizure model only 1/4 animals were protected at 100 and 300 mg/kg at 30 min. No toxicity (unable to grasp rotorod) or activity was detected at any other dose or time point tested.
# scMET model = assay: scMET model; assay type: in vivo, mice; settings: for N/F (animals protected over tested): IP quantification, 0.5 h
# mice = settings: mouse, in vivo
# [1] = tested on: MES-induced seizure model; assay: MES-induced seizure model; assay type: in vivo, mice; settings: for ED50, MES: mice IP, 0.5 hrs
# scn1Lab mutant zebrafish [2] = assay type: in vivo, Danio rerio (zebrafish); settings: for inhibition of spontaneous seizure behavior, initial screen: 667 μM; for swim activity / seizure behavior, third trial: 100 μM
# wild-type larvae = assay: DMSO toxicity in larvae; settings: dilutions between 0.01 and 100%; n=12 fish per concentration
# scn1Lab mutant zebrafish [3] = assay type: in vivo, Danio rerio (zebrafish); settings: for forebrain electrographic seizure activity after the locomotion assay: 100 μM
# [4] = tested on: WT zebrafish exposed to 15 mM pentylenetetrazole; assay: PTZ-induced seizure behavior, locomotion assay; assay type: in vivo; settings: 100 μM, n=10
# [5] = 1 mM (KD: 48 hr exposure), 5 dpf
smiles,measurement,setting,value
Clc1ccc(Cn2c(CN3CCCC3)nc3ccccc32)cc1 [ASP469016],N/F (animals protected over tested),"6 Hz (32 mA) model; 30 mg/kg, 0.5 h",0/4
same,N/F (animals protected over tested),"6 Hz (32 mA) model; 30 mg/kg, 2.0 h",0/4
same,N/F (animals protected over tested),"6 Hz (32 mA) model; 100 mg/kg, 0.5 h",1/4
same,N/F (animals protected over tested),"6 Hz (32 mA) model; 100 mg/kg, 2.0 h",0/4
same,N/F (animals protected over tested),"6 Hz (32 mA) model; 300 mg/kg, 0.5 h",0/4
same,N/F (animals protected over tested),"6 Hz (32 mA) model; 300 mg/kg, 2.0 h",0/4
same,N/F (animals protected over tested),scMET model; 200 mg/kg,0/8
same,N/F (animals protected over tested),scMET model; 250 mg/kg,0/4
same,"ED50, SCMET","scMET model; mice IP, 0.5 hrs",>250.0 mg/kg
same,activity in the scMET model,scMET model; quantitative testing,No activity
same,activity or toxicity (unable to grasp rotorod),mice,No activity or toxicity
same,N/F (animals toxic over tested),mice; 400 mg/kg,0/8
same,N/F (animals toxic over tested),mice; 500 mg/kg,0/4
same,"ED50, TOX",mice; ip,>500 mg/kg
same,N/F (animals toxic over tested),"mice; ip, 30 mg/kg",0/8
same,N/F (animals toxic over tested),"mice; ip, 100 mg/kg",0/8
same,N/F (animals toxic over tested),"mice; ip, 300 mg/kg",0/8
same,N/F (animals toxic over tested),"mice; ip, 500 mg/kg",0/4
same,activity during determination of the TPE in the MES model,[1]; 300 mg/kg starting dose,no activity
same,activity in the qualitative MES screen,[1]; 100 and 300 mg/kg doses,some activity
same,N/F (animals protected over tested),"[1]; IP quantification, 350 mg/kg, 0.5 h",0/8
same,N/F (animals protected over tested),"[1]; IP quantification, 400 mg/kg, 0.5 h",7/8
same,N/F (animals protected over tested),"[1]; IP quantification, 500 mg/kg, 0.5 h",4/4
same,N/F (animals protected over tested),"[1]; identification screen IP, 30 mg/kg, 0.5 h",0/4
same,N/F (animals protected over tested),"[1]; identification screen IP, 30 mg/kg, 2.0 h",0/4
same,N/F (animals protected over tested),"[1]; identification screen IP, 100 mg/kg, 0.5 h",1/4
same,N/F (animals protected over tested),"[1]; identification screen IP, 100 mg/kg, 2.0 h",0/4
same,N/F (animals protected over tested),"[1]; identification screen IP, 300 mg/kg, 0.5 h",1/4
same,N/F (animals protected over tested),"[1]; identification screen IP, 300 mg/kg, 2.0 h",0/4
same,"ED50, MES",[1],< 400 mg/kg
same,"ED50, MES",[1]; listed as 469016,<400.0 mg/kg
same,N/F (animals protected over tested),"[1]; time to peak effect, 300 mg/kg, 0.25 h",0/4
same,N/F (animals protected over tested),"[1]; time to peak effect, 300 mg/kg, 0.5 h",0/4
same,N/F (animals protected over tested),"[1]; time to peak effect, 300 mg/kg, 1.0 h",0/4
same,N/F (animals protected over tested),"[1]; time to peak effect, 300 mg/kg, 2.0 h",0/4
same,N/F (animals protected over tested),"[1]; time to peak effect, 300 mg/kg, 4.0 h",0/4
same,N/F (animals protected over tested),"[1]; time to peak effect, 500 mg/kg, 0.25 h",2/4
same,N/F (animals protected over tested),"[1]; time to peak effect, 500 mg/kg, 1.0 h",0/4
same,N/F (animals protected over tested),"[1]; time to peak effect, 500 mg/kg, 2.0 h",0/4
same,N/F (animals protected over tested),"[1]; time to peak effect, 500 mg/kg, 4.0 h",0/4
CC(=O)Nc1nnc(S(N)(=O)=O)s1 [Acetazolamide],effect on locomotor seizure behavior,"scn1Lab mutant zebrafish [2]; zebrafish, in vivo",increased seizure behavior
C[S+](C)[O-] [DMSO],lethal DMSO dilution,wild-type larvae,> 25%
NCC(O)CC(=O)O (centres unmarked) [aminohydroxybutyric acid],"inhibition of spontaneous seizure behavior, initial screen","scn1Lab mutant zebrafish [2]; 5 dpf, 6-12 fish",ineffective
O=C(CCCl)NCc1ccccc1 [beclamide],"inhibition of spontaneous seizure behavior, initial screen",scn1Lab mutant zebrafish [2],ineffective
NC(=O)N1c2ccccc2C=Cc2ccccc21 [carbamazepine],Epileptiform event frequency (burst frequency; interictal- and ictal-like discharges),"scn1Lab mutant zebrafish [3]; zebrafish, in vivo",increased burst frequency
same,fish in which epileptiform activity became more frequent,"scn1Lab mutant zebrafish [3]; zebrafish, in vivo",2 of 7
Clc1ccc(Cn2c(CN3CCCC3)nc3ccccc32)cc1 [clemizole],"swim activity / seizure behavior, third trial",scn1Lab mutant zebrafish [2],effective in suppressing spontaneous seizure activity
same,seizure behavior in the locomotion assay,scn1Lab mutant zebrafish [2]; n=33,no significant effect
same,"seizure-induced swim activity and mean velocity, re-test","scn1Lab mutant zebrafish [2]; zebrafish, in vivo",effective in reducing seizure-induced swim activity and mean velocity
same,PTZ-induced seizure behavior,[4],effective in reducing seizure behavior
same,forebrain electrographic seizure activity after the locomotion assay,scn1Lab mutant zebrafish [3],effective in suppressing spontaneous seizure activity
same,burst duration,scn1Lab mutant zebrafish [3]; n=7,154 ± 127 ms
same,burst frequency,scn1Lab mutant zebrafish [3]; n=7,0.2±0.01 bursts/min
same,fractional time spent seizing,scn1Lab mutant zebrafish [3]; n=7,0.03±0.02%
C#CCN(C)CCCOc1ccc(Cl)cc1Cl [clorgiline HCl],"swim activity / seizure behavior, third trial",scn1Lab mutant zebrafish [2],reduced swim activity
same,"seizure-induced swim activity and mean velocity, re-test","scn1Lab mutant zebrafish [2]; zebrafish, in vivo",effective in reducing seizure-induced swim activity and mean velocity
same,forebrain electrographic seizure activity after the locomotion assay,scn1Lab mutant zebrafish [3],electrographic seizure events were still observed
CN1C(=O)CN=C(c2ccccc2)c2cc(Cl)ccc21 [diazepam],effect on locomotor seizure behavior,scn1Lab mutant zebrafish [2]; [5],effectively inhibited seizure behavior
same,fractional time spent seizing,"scn1Lab mutant zebrafish [3]; 1 mM bath applied, 5-6 dpf, vs baseline",reduced
same,Epileptiform event frequency (burst frequency; interictal- and ictal-like discharges),"scn1Lab mutant zebrafish [3]; 1 mM bath applied, agar-embedded mutants 5-6 dpf, vs baseline, 7 fish per drug",reduced
CCC1(C)CC(=O)NC1=O (centres unmarked) [ethosuximide],effect on locomotor seizure behavior,"scn1Lab mutant zebrafish [2]; zebrafish, in vivo",increased seizure behavior
same,fish in which epileptiform activity became more frequent,"scn1Lab mutant zebrafish [3]; zebrafish, in vivo",4 of 7
CC(=O)[C@H]1CC[C@H]2[C@@H]3CC[C@H]4C[C@](C)(O)CC[C@]4(C)[C@H]3CC[C@]12C [ganaxolone],effect on locomotor seizure behavior,scn1Lab mutant zebrafish [2]; [5],effective
CC(C)CCCC(C)NC(C)C (centres unmarked) [iproheptine],convulsive behavior (H1 antihistamines),"scn1Lab mutant zebrafish [2]; locomotor seizure assay, 5 dpf",failed to suppress convulsive behavior
Nc1nnc(-c2cccc(Cl)c2Cl)c(N)n1 [lamotrigine],effect on locomotor seizure behavior,"scn1Lab mutant zebrafish [2]; zebrafish, in vivo",no effect
CC[C@@H](C(N)=O)N1CCCC1=O [levetiracetam],effect on locomotor seizure behavior,"scn1Lab mutant zebrafish [2]; zebrafish, in vivo",no effect
CN1CCc2c(c3ccccc3n2Cc2ccccc2)C1.CN1CCc2c(c3ccccc3n2Cc2ccccc2)C1.O=S(=O)(O)c1cccc2c(S(=O)(=O)O)cccc12 [mebhydrolin napthalenesulfonate],convulsive behavior (H1 antihistamines),"scn1Lab mutant zebrafish [2]; zebrafish, in vivo",failed to suppress convulsive behavior
CN1CCC(=C2c3ccccc3Sc3ccccc32)CC1 [pimethixene maleate],convulsive behavior (H1 antihistamines),"scn1Lab mutant zebrafish [2]; zebrafish, in vivo",failed to suppress convulsive behavior
[Br-].[K+] [potassium bromide],effect on locomotor seizure behavior,"scn1Lab mutant zebrafish [2]; zebrafish, in vivo",effectively inhibited seizure behavior
same,Epileptiform event frequency (burst frequency; interictal- and ictal-like discharges),"scn1Lab mutant zebrafish [3]; zebrafish, in vivo",reduced
same,fractional time spent seizing,"scn1Lab mutant zebrafish [3]; zebrafish, in vivo",reduced
CC(C)(C)C(O)/C=C/c1ccc2c(c1)OCO2 (centres unmarked) [stiripentol],effect on locomotor seizure behavior,"scn1Lab mutant zebrafish [2]; zebrafish, in vivo",effectively inhibited seizure behavior
same,Epileptiform event frequency (burst frequency; interictal- and ictal-like discharges),"scn1Lab mutant zebrafish [3]; zebrafish, in vivo",reduced
same,fractional time spent seizing,"scn1Lab mutant zebrafish [3]; zebrafish, in vivo",reduced
CCNC1(c2cccs2)CCCCC1=O (centres unmarked) [tiletamine],"inhibition of spontaneous seizure behavior, initial screen","scn1Lab mutant zebrafish [2]; 5 dpf, 6-12 fish",ineffective
Cc1ccc(C(=O)C(C)CN2CCCCC2)cc1 (centres unmarked) [tolperisone HCl],"swim activity / seizure behavior, third trial",scn1Lab mutant zebrafish [2],reduced swim activity
same,"seizure-induced swim activity and mean velocity, re-test","scn1Lab mutant zebrafish [2]; zebrafish, in vivo",effective in reducing seizure-induced swim activity and mean velocity
same,forebrain electrographic seizure activity after the locomotion assay,scn1Lab mutant zebrafish [3],electrographic seizure events were still observed
C=CC(N)CCC(=O)O (centres unmarked) [vigabatrin],Epileptiform event frequency (burst frequency; interictal- and ictal-like discharges),"scn1Lab mutant zebrafish [3]; zebrafish, in vivo",increased burst frequency
same,fish in which epileptiform activity became more frequent,"scn1Lab mutant zebrafish [3]; zebrafish, in vivo",6 of 7
